Target: T1, human bradykinin B2 receptor (hB2R) (Homo sapiens, UniProt P30411)
T1 sequence (P30411 1-391): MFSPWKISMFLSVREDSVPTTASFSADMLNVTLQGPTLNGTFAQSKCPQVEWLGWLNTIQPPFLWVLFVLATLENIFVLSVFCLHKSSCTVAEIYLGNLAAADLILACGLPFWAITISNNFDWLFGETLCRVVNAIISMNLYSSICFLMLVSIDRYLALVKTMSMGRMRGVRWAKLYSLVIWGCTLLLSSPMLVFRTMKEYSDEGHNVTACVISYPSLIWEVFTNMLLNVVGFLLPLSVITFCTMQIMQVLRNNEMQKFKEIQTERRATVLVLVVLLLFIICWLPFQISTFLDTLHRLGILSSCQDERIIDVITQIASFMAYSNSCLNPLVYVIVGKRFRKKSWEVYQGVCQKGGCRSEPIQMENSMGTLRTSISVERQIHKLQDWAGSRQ
Assay: cell-based human bradykinin B2 receptor calcium mobilization (hB2R-CaM) assay
Settings: HTS041C cells, bradykinin at EC80, calcium mobilization; read-out: IC50-value towards human bradykinin B2 receptor (hB2R)
From the text: The following cell-based human bradykinin B2 receptor calcium mobilization (hB2R-CaM) assay was used to determine the antagonistic activity of compounds selected from the example compounds Nos. 1 to 168 towards human bradykinin B2 receptor (hB2R). The assay is defined herein as a standard in vitro B2 receptor activity assay, which can be used to determine IC50 values of the compounds according to the present invention, e. g. the compounds shown in Examples 1-11.
The antagonistic activity of compounds according to the present invention was investigated with the hB2R-CaM assay using the B2 Bradykinin Receptor Stable Cell Line HTS041C (Eurofins, St. Charles MO) and the FLIPR Calcium 6 Assay Kit (Molecular Devices, Wokingham, UK) according to the instructions of the providers. CaM assay measurements were performed with a Flexstation 3 System (Molecular Devices) which allows the precise addition of compounds (B2R antagonists) and bradykinin (B2R agonist) to the cells and adjacent continuous recording of the time-dependent CaM assay signals.
HTS041C cells were cultured in high glucose DMEM cell culture medium (Lonza) supplemented with 10% heat-inactivated FBS (PAN Biotech), 10 mM HEPES, Penicillin/Streptomycin (200 U/mL, 200 μg/mL), 1× non-essential amino acids (Lonza), and 250 μg/mL G418 (Invivogen) in cell incubator at 37° C. in a 5% CO2 atmosphere.
One day before the CaM assay experiments cells were seeded in 200 μL DMEM cell culture medium with reduced FBS (5%) and without G418 on clear bottom black 96 well plates (ThermoFisher #165305). Cell starvation was carried out by incubation (37° C., 5% CO2) of 70.000 cells/well for 24 h to 28 h. Immediately prior calcium dye-loading the medium was carefully aspirated and cells were washed with Hank's balanced salt solution (HBSS, Gibco) containing Ca^2+, Mg^2+ and 20 mM HEPES, adjusted to pH 7.4 (HBSS+). Calcium Dye Loading of the Cells:
For calcium dye-loading one FLIPR 6 assay aliquot was dissolved in 20 mL HBSS+. 150 μL of the dye loading solution was added to cell plate and incubated for 120 min at 37° C. and 5% CO2. After dye loading the cell plate was immediately transferred to the pre-warmed (37° C.) Flexstation 3 System for CaM assaying.
Freshly prepared compound (B2 receptor antagonists) dilution series (8 pt, n=2) and bradykinin (B2 receptor agonist) solution in non-binding plates (Costar) were transferred to the Flexstation System (source plate) shortly before starting the experiment. Bradykinin was added in EC80 concentration determined in n>3 preliminary experiments with 8 pt concentration response curves (n=8)). CaM assay was executed by Flexstation 3 System starting with recording of calcium-sensitive dye fluorescence in bottom-read Flex modus with ex/em=485 nm/525 nm, cut off(em)=[…]. After 20 s, 50 μL of 4-fold concentrated compound dilutions were added to the cells resulting in a final DMSO (Sigma) concentration of 0.1% in the cell plate. CaM signals were monitored for 80 s after additions for detection of potential agonistic activities. Prior to bradykinin stimulus compound- and vehicle-treated cells were incubated for 25 min at 37° C. within the Flexstation System. Then 50 μL of a 5-fold concentrated bradykinin solution (HBSS+, 0.1% DMSO) was added to trigger CaM signals (Read out: Max-Min values) which were measured for 80 s post bradykinin stimulus.
IC50 determinations were performed by 4 parameter logistic model curve fitting of the 8 pt (n=2) compound concentration response curves using XLFIT (IDBS) software.
Relative IC50 values of the test compounds were determined with the same hB2R-CaM assay as in Example 12.

| IC50 [nM] | Compound |
| --- | --- |
| ≤ 50 | Cc1cc(-c2ncnn2C)c2cccc(OCc3c(Cl)cc(F)cc3[C@H](C)NC(=O)c3ccncc3)c2n1 [Compound 163] |
| ≤ 50 | Cc1cc(-n2ncnc2C)c2cccc(OCc3c(Cl)cc(F)cc3[C@H](C)NC(=O)COC(F)F)c2n1 [Compound 9, (S)—N-(1-(3-chloro-5-fluoro-2-((2-methyl-4-(5-methyl-1H-1,2,4-triazol-1-yl)quinolin-8-yloxy)methyl)phenyl)ethyl)-2-(difluoromethoxy)acetamide] |
| ≤ 50 | Cc1cc(-n2cc(F)cn2)c2cccc(OCc3c(Cl)cc(F)cc3[C@H](C)NC(=O)c3cccnc3)c2n1 [Compound 124] |
| 51 to 250 | Cc1cc(-n2cc(F)cn2)c2cccc(OCc3c(Cl)cc(F)cc3[C@H](C)NC(=O)[C@H](O)C(C)C)c2n1 [Compound 67] |
| ≤ 50 | COC(=O)[C@@H](O)CC(=O)N[C@@H](C)c1cc(F)cc(Cl)c1COc1cccc2c(-n3cc(F)cn3)cc(C)nc12 [Compound 70] |
| ≤ 50 | CC[C@H](NC(=O)c1cocn1)c1cc(F)cc(Cl)c1COc1cccc2c(-n3ncnc3C)cc(C)nc12 [Compound 165] |
| ≤ 50 | Cc1cc(-n2cc(F)cn2)c2cccc(OCc3c(Cl)cc(F)cc3[C@H](C)NC(=O)c3ocnc3C)c2n1 [Compound 91] |
| 51 to 250 | Cc1cc(-n2nc(C)nc2C)c2cccc(OCc3c(Cl)cc(F)cc3[C@H](C)NC(=O)c3coc(C)n3)c2n1 [Compound 137] |
| ≤ 50 | Cc1cc(-n2ncnc2C)c2cccc(OCc3c(Cl)cc(F)cc3[C@H](C)NC(=O)c3cc(C)on3)c2n1 [Compound 158] |
| ≤ 50 | Cc1cc(-c2ncnn2C)c2cccc(OCc3c(Cl)cc(F)cc3[C@H](C)NC(=O)C(C)(F)F)c2n1 [Compound 178] |
| 51 to 250 | CC[C@@H](O)C(=O)N[C@@H](C)c1cc(F)cc(Cl)c1COc1cccc2c(-n3nccn3)cc(C)nc12 [Compound 34] |
| 51 to 250 | Cc1cc(-n2cc(F)cn2)c2cccc(OCc3c(Cl)cc(F)cc3[C@H](C)NC(=O)c3cnoc3C)c2n1 [Compound 89] |
| ≤ 50 | CC[C@H](NC(=O)COC(F)(F)F)c1cc(F)cc(Cl)c1COc1cccc2c(-n3ncnc3C)cc(C)nc12 [Compound 167] |
| ≤ 50 | Cc1cc(-n2ncnc2C)c2cccc(OCc3c(Cl)cc(F)cc3[C@H](C)NC(=O)c3ccon3)c2n1 [Compound 157] |
| ≤ 50 | Cc1cc(-n2cc(F)cn2)c2cccc(OCc3c(Cl)cc(F)cc3[C@H](C)NC(=O)C(C)(C)CO)c2n1 [Compound 60] |
| ≤ 50 | CCn1ncnc1-c1cc(C)nc2c(OCc3c(Cl)cc(F)cc3[C@H](C)NC(=O)COC(F)F)cccc12 [Compound 140] |
| ≤ 50 | Cc1cc(-c2ncnn2C)c2cccc(OCc3c(Cl)cc(F)cc3[C@H](C)NC(=O)COCC3CC3)c2n1 [Compound 117] |
| ≤ 50 | CCn1ncnc1-c1cc(C)nc2c(OCc3c(Cl)cc(F)cc3[C@H](C)NC(=O)C(C)(C)O)cccc12 [Compound 143] |
| ≤ 50 | Cc1cc(-c2ccnn2C)c2cccc(OCc3c(Cl)cc(F)cc3[C@H](C)NC(=O)c3cnco3)c2n1 [Compound 196] |
| 51 to 250 | Cc1cc(-n2ncc(F)c2C)c2cccc(OCc3c(Cl)cc(F)cc3[C@H](C)NC(=O)[C@@H](C)O)c2n1 [Compound 8, (R)—N—((S)-1-(3-chloro-5-fluoro-2-((4-(4-fluoro-5-methyl-1H-pyrazol-1-yl)-2-methylquinolin-8-yloxy)methyl)phenyl)ethyl)-2-hydroxypropanamide] |
| ≤ 50 | Cc1cc(-c2ncnn2C)c2cccc(OCc3c(Cl)cc(F)cc3[C@H](C)NC(=O)c3ccon3)c2n1 [Compound 122] |
| ≤ 50 | CCc1ncnn1-c1cc(C)nc2c(OCc3c(Cl)cc(F)cc3[C@H](C)NC(=O)C(C)F)cccc12 (some centres unmarked) [Compound 172] |

| IC50 [nM] | Compound |
| --- | --- |
| ≤ 50 | Cc1cc(-c2ncnn2C)c2cccc(OCc3c(Cl)cc(F)cc3[C@H](C)NC(=O)c3coc(C)n3)c2n1 [Compound 130] |
| ≤ 50 | Cc1cc(-n2ncnc2C)c2cccc(OCc3c(Cl)cc(F)cc3[C@H](C)NC(=O)C(C)(F)F)c2n1 [Compound 180] |
| ≤ 50 | CC[C@H](NC(=O)COC(F)F)c1cc(F)cc(Cl)c1COc1cccc2c(-c3ncnn3C)cc(C)nc12 [Compound 131] |
| 51 to 250 | Cc1cc(-n2cc(F)cn2)c2cccc(OCc3c(Cl)cc(F)cc3[C@H](C)NC(=O)[C@@H]3COC(=O)N3)c2n1 [Compound 111] |
| 251 to 1000 | Cc1cc(-n2cc(F)cn2)c2cccc(OCc3c(Cl)cc(F)cc3[C@H](C)NC(=O)[C@@H](O)CN)c2n1 [Compound 21] |
| 51 to 250 | Cc1cc(-n2cc(F)cn2)c2cccc(OCc3c(Cl)cc(F)cc3[C@H](C)NC(=O)C(C)C(F)(F)F)c2n1 (some centres unmarked) [Compound 54] |
| ≤ 50 | Cc1cc(-c2ncc(C#N)n2C)c2cccc(OCc3c(Cl)cc(F)cc3[C@H](C)NC(=O)C(C)F)c2n1 (some centres unmarked) [Compound 207] |
| 51 to 250 | Cc1cc(-n2cc(F)cn2)c2cccc(OCc3c(Cl)cc(F)cc3[C@H](C)NC(=O)C(F)F)c2n1 [Compound 146] |
| 51 to 250 | Cc1cc(-n2cnc(C)n2)c2cccc(OCc3c(Cl)cc(F)cc3[C@H](C)NC(=O)c3cnco3)c2n1 [Compound 96] |
| ≤ 50 | Cc1cc(-n2ncnc2C)c2cccc(OCc3c(Cl)cc(F)cc3[C@H](C)NC(=O)C(C)(C)O)c2n1 [Compound 160] |
| ≤ 50 | Cc1cc(-c2ncnn2C)c2cccc(OCc3c(Cl)cc(F)cc3[C@H](C)NC(=O)c3cccnc3)c2n1 [Compound 162] |
| ≤ 50 | [2H][C@@](C)(NC(=O)COC(F)F)c1cc(F)cc(Cl)c1COc1cccc2c(-n3ncnc3C)cc(C)nc12 [Compound 168] |
| ≤ 50 | CCn1ncnc1-c1cc(C)nc2c(OCc3c(Cl)cc(F)cc3[C@H](C)NC(=O)COC(F)(F)F)cccc12 [Compound 145] |
| ≤ 50 | Cc1cc(-n2ncnc2C)c2cccc(OCc3c(Cl)cc(F)cc3[C@H](C)NC(=O)c3coc(C)n3)c2n1 [Compound 156] |
| 51 to 250 | Cc1cc(-n2cc(F)cn2)c2cccc(OCc3c(Cl)cc(F)cc3[C@H](C)NC(=O)C3CCC(C)(C)O3)c2n1 (some centres unmarked) [Compound 109] |
| ≤ 50 | Cc1cc(-n2ncnc2C)c2cccc(OCc3c(Cl)cc(F)cc3[C@H](C)NC(=O)C(F)F)c2n1 [Compound 174] |
| ≤ 50 | Cc1cc(-c2[nH]ncc2C)c2cccc(OCc3c(Cl)cc(F)cc3[C@H](C)NC(=O)C(C)(C)O)c2n1 [Compound 189] |
| ≤ 50 | [2H]C([2H])([2H])[C@H](NC(=O)c1cocn1)c1cc(F)cc(Cl)c1COc1cccc2c(-c3ncnn3C)cc(C)nc12 [Compound 200] |
| ≤ 50 | CCc1ncnn1-c1cc(C)nc2c(OCc3c(Cl)cc(F)cc3[C@H](C)NC(=O)C(C)(C)O)cccc12 [Compound 171] |
| ≤ 50 | [2H][C@@](C)(NC(=O)C(F)F)c1cc(F)cc(Cl)c1COc1cccc2c(-c3ncnn3C)cc(C)nc12 [Compound 183] |
| ≤ 50 | Cc1cc(-c2[nH]ncc2C)c2cccc(OCc3c(Cl)cc(F)cc3[C@H](C)NC(=O)COC(F)F)c2n1 [Compound 185] |
| ≤ 50 | Cc1cc(-c2ncnn2C)c2cccc(OCc3c(Cl)cc(F)cc3[C@H](C)NC(=O)[C@@H](C)F)c2n1 [Compound 204] |
